Assays:
[1] = system: PKM2 phosphorylation / AKT pathway in A549 cells; assay: Western blot analysis, A549; type: cell-based
Description: (§1) After incubation A549 and H1975 cells with formula I for 24 hours and 72 hours, A549 and H1975 cells were harvested and washed with cold 1×PBS. Then, cells were lysed with ice-cold RIPA lysis buffer with protease, and phosphatase inhibitors were added to extract the cell protein extraction. The supernatants were collected by centrifugation at 12,000 g, for 5 minutes. The quantitation of total protein extraction was measured by Bio-Rad DCTM protein assay kit (Bio-Rad, Philadelphia, Pa., USA). Then 30 μg of protein were loaded and electrophoretically separated on 8% SDS-PAGE gel and then transferred to Nitrocellulose (NC) membrane. Membranes were blocked with 5% non-fat milk and […] containing 0.1% Tween-20 (TBST) for 1 hour at room temperature. After 1 hour, membranes were incubated with primary anti-bodies (1:1000 dilution) against β-actin, total/phosphor-PKM2, total/phosphor-AKT, and BCL-2 at 4° C. with gently shaking overnight. Membranes were washed with TBST for 3 times (5 minutes/time), and incubated with secondary fluorescent antibody (1:10000 dilutions) for 1 hour at room temperature. Rewashing with TBST for 3 times (15 minutes/time), the stripes were visualized by LI-COR Odessy scanner (Belfast, Me., USA).

[2] = system: PKM2 phosphorylation / AKT pathway in H1975 cells; assay: Western blot analysis, H1975; type: cell-based
Description: as §1

A549 cells = assay: Apoptosis assay, Annexin V/PI flow cytometry, A549; type: cell-based; details: 24, 48 and 72 hours, vs control group
Description: (§2) A549 and H1975 cells (1×10^5 cells/well) were seeded in a well plate with 6 wells for 24 hours, and treated with the indicated concentrations of formula I for an additional 24 hours, 48 hours and 72 hours at 37° C. After indicated hours, the cells were washed by ice-cold 1×PBS once and harvested by trypsination. Then cells were centrifuged, collected, and resuspended in ice-cold 1×PBS. After removing the supernatants, cell pellets were re-suspended in 100 μL 1×Annexin-binding buffer. The cells were then double-stained with Annexin-V FITC and PI (100 μg/mL) of 2 μL respectively for 15 min at room temperature in dark. After that, 300 μL 1× Annexin-binding buffer was added. Apoptotic cells were quantitatively counted by a BD Aria III Flow Cytometer (BD Biosciences, San Jose, Calif., USA)

PKM2 enzyme = PKM2 enzyme (Homo sapiens, UniProt P14618); assay: PKM2 enzyme activity assay (KINASE GLO Plus); type: biochemical
PKM2 enzyme, sequence (P14618 whole entry): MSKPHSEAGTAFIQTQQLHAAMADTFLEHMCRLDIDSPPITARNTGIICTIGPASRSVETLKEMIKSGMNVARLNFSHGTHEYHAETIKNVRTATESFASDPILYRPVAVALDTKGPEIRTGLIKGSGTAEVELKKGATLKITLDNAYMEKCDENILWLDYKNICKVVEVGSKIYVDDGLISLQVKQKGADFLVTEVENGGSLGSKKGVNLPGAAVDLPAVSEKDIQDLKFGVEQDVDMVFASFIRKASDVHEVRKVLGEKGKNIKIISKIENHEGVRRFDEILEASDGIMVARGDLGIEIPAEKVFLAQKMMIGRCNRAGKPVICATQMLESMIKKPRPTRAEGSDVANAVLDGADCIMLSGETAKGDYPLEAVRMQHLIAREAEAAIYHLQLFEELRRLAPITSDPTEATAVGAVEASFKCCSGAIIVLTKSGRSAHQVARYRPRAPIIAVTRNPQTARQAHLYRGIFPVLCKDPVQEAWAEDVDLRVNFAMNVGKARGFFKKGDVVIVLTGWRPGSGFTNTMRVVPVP
Description: 5. PKM2 Enzyme Activity Assay
PKM2 biochemical assay Compounds were pre-incubated with 2 nmol/L PKM2 enzyme in reaction buffer (50 mmol/L Tris-HCl, pH 8.0, 200 mmol/L KCl, 30 mmol/L MgCl2, 2 mmol/L dithiothreitol (DTT), 5% DMSO) for 30 minutes at room temperature. ADP and PEP were then added to final concentrations of […] and 15 mmol/L, respectively. After 30 minutes, ATP formation was measured by KINASE GLO® Plus from Promega, and Concentration at half-maximal activation (AC50) values were determined using Prism GraphPad Software.
PKM2 enzyme activity assay over the concentration of formula I was performed in KINASE GLO® Plus assay. The controls were conducted in the presence of 5% Dimethyl sulfoxide (DMSO) and normalized to 100%±SD. […] (n=3, **p<0.005, ***p<0.001). […] The maximum PKM2 enzyme activity was more than 200% compared to that in controls.

H1975 cells = assay: Apoptosis assay, Annexin V/PI flow cytometry, H1975; type: cell-based; details: 24, 48 and 72 hours, vs control group
Description: as §2

AC50 (PKM2 enzyme; 2 nmol/L PKM2, KINASE GLO Plus, n=3, read-out: AC50 (concentration at half-maximal activation)): 5.5 ± 1 µM
maximum PKM2 enzyme activity compared to controls (PKM2 enzyme; controls with 5% DMSO normalized to 100%): more than 200%
Compound: O=S(=O)(Nc1ccccc1)c1ccc(-c2ccc(S(=O)(=O)Nc3ccccc3)cc2)cc1 [formula I]
AKT pathway [1]: selectively inhibited AKT pathway
PKM2 phosphorylation ([1]; β-actin loading control): activated phosphorylation of both PKM2 in a dose-dependent manner
AKT pathway [2]: selectively inhibited AKT pathway
PKM2 phosphorylation ([2]; β-actin loading control): activated phosphorylation of both PKM2 in a dose-dependent manner
apoptosis level (A549 cells): induced significant level of apoptosis in a concentration-dependent manner
apoptosis level (H1975 cells): induced significant level of apoptosis in a concentration-dependent manner
